The values that follow are results of earlier work, collected in publication PMC7584476, “Safety and efficacy of BAY1436032 in IDH1-mutant AML: phase I study results” (Leukemia, 2020).

The series deals with mIDH1 glioma. Also noted: method as in doi:10.1093/annonc/mdz244.020. Particulars: subjects with mIDH1 glioma; cited from earlier work.

With `C[C@H]1C[C@@H](n2c(Nc3ccc(OC(F)(F)F)cc3)nc3cc(CCC(=O)O)ccc32)CC(C)(C)C1` [BAY1436032], the Objective responses result was “objective responses have been observed in a subset of subjects”.
